Patent US7390870B2, “Immune-enhancing peptides” (Posco, priority 2001, dated 2008)
No end group written: not given here.

What was measured:
[1] = tested on: differentiated HL60 cells; assay: Superoxide generation in differentiated HL60 cells; format: cell-based, human; details: similar concentrations as for the [Ca2+]i increase
Method: For initial screening of the PS-SPCLs, the superoxide anion generation of each peptide pool was evaluated by measuring reduction of cytochrome c using a microtiter 96 well plate ELISA reader (Bio-Tekinstruments, EL312e, Winooski, Vt.) as described (20). The cytochrome c was purchased from Sigma (St. Louis, Mo.). The human monocytes (9×10^5 cells/100 □ of RPMI 1640 medium per well of a 96-well plate) were preincubated with 50 μM cytochrome c at 37° C. for 1 minute and then incubated with the indicated concentrations of peptide pools (final 0.5 nM per peptide sequence for the initial screening). The superoxide generation was measured as change in light absorption at 550 nm over 5 minutes at 1 minute intervals. From at least four independent experiments, peptides with active amino acids at each position were chosen. Superoxide generation by the identified peptides was measured by the same method. Spurious reduction of cytochrome c was ruled out by checking that the peptides-induced ones were superoxide dismutase-inhibitable in all experiments.
A test where the three peptides on HL60 cells that had differentiated into granulocytes after having been cultured in the presence of 1.25% DMSO for 4 days was performed. HL60 cells were cultured in RPMI medium containing 20% FCS. […] The peak level of the [Ca^2+]i increase was recorded. […]

[2] = tested on: human monocytes; assay: [Ca2+]i rise in human monocytes (fura-2/AM); format: cell-based
Method: (§1) The level of [Ca^2+]i was determined by Grynkiewicz's method using fura-2/AM (21). Briefly, prepared cells were incubated with 3 μM fura-2/AM at 37° C. for 50 minutes in a fresh serum-free RPMI 1640 medium under continuous stirring. 2×10^6 cells were aliquoted for each assay in Ca^2+-free Locke's solution (154 mM NaCl, 5.6 mM KCl1.2 mM MgCl2, 5 mM HEPES, pH 7.3, 10 mM glucose, and 0.2 mM EGTA). The fluorescence changes at the dual excitation wavelengths of 340 nm and 380 nm and the emission wavelength of 500 nm were measured, and the calibrated fluorescence ratio was translated into [Ca^2+]i.
Many extracellular agonists that stimulate superoxide generation in human phagocytic cells involve intracellular calcium rise (23). In this example, the effect of the peptides on the [Ca^2+]i of monocytes were tested. The results are shown FIG. 3. The data of FIG. 3 are presented as means ±S.E. of four independent experiments. *P<0.01 versus vehicle treatment.
Fura-2-loaded monocytes were stimulated with an effective concentration of HFYLPM (1 μM), MFYLPM (1 μM), HFYLPm (100 nM), and LFMYHP (10 μM). The change in 340 nm/380 nm was monitored. The cells were stimulated with various concentrations of each peptide. The peak level of the increase in [Ca^2+]i was monitored. […] The results of A of FIG. 3 are representative of 6 independent experiments. […]

[3] = tested on: differentiated HL60 cells; assay: [Ca2+]i increase in differentiated HL60 cells (dHL60, granulocyte phenotype); format: cell-based, human; details: FIG. 5; various concentrations
Method: U937 (human histiocytic lymphoma cells), HL60 (human promyelocytic leukemia cells), Jurkat (human T cell leukemia cells), NIH3T3 (NIH Swiss mouse embryo fibroblasts), 3Y1 (Rat embryonic fibroblasts), 3T3L1 (preadipocytes), and PC12 (rat adrenal pheochromocytoma cells) were obtained from the American Type Culture Collection (Rockville, Md.) and maintained as re, commended. The cells were maintained at about 1×10^6 cells/ml under standard incubator conditions (humidified atmosphere, 95% air, 5% CO2, 37° C.). HL60 cells were induced to differentiate into the granulocyte phenotype by adding dimethylsulfoxide (DMSO) (final concentration 1.25%, v/v) for 4 days to the culture medium as has been described before (18).
as §1, with “2×10^6 cells were aliquoted for each assay in Ca^2+-free Locke's solution (154 mM NaCl, 5.6 mM KCl1.2 mM MgCl2, 5 mM HEPES, pH 7.3, 10 mM glucose, and 0.2 mM EGTA).” left out
A test where the three peptides on HL60 cells that had differentiated into granulocytes after having been cultured in the presence of 1.25% DMSO for 4 days was performed. […] The peak level of the [Ca^2+]i increase was recorded. […]

[4] = tested on: fura-2-loaded differentiated HL60 cells; assay: Cross-desensitization of [Ca2+]i increase between fMLF and the peptides; format: cell-based, human; details: HFYLPm 1 μM, HFYLPM and MFYLPM 10 μM
Method: as §1
Among various agonists, fMLF is known to cause superoxide production and [Ca^2+]i increase in phagocytic cells by binding to its specific receptor (7). To check whether the novel peptides can cross-desensitize the signaling by fMLF, the effect of fMLF on the novel peptides-induced [Ca^2+]i increase and vice versa was examined. […] The results of FIG. 6 shown are from one experiment that is representative of at least three independent experiments.
In FIG. 6, “Hm” means HFYLPm, “HM” means HFYLPM, and “MM” means MFYLPM. The concentrations used were 1 μM (HFYLPm and fMLF) and 10 μM (HFYLPM and MFYLPM). 340 nm/380 mn ratios in fluorescence were monitored on fura-2-loaded differentiated HL60 cells before and during sequential addition of agonists at the times indicated by the arrows.

For “Met-Phe-Tyr-Leu-Pro-Met-CONH2 (MFYLPM-NH2)”, the “superoxide generation in differentiated HL60 cells” value [1] was “resulted in superoxide generation”, the “effect on [Ca2+]i in monocytes” value ([2]; FIG. 3A, HFYLPM 1 μM, MFYLPM 1 μM, HFYLPm 100 nM, LFMYHP 10 μM) was “caused intracellular Ca mobilization” and the “concentration of maximal [Ca2+]i increase” value ([2]; FIG. 3B) was 1 µM. For the same substance, the “[Ca2+]i rise in differentiated HL60 cells” value [3] was “stimulated both undifferentiated and differentiated HL60 cells”, the “desensitization to subsequent stimulation with the same peptide ([Ca2+]i)” value ([4]; FIG. 6) was “complete desensitization” and the “block of the calcium response to a following saturating concentration of fMLF” value ([4]; FIG. 6 below, fMLF 1 μM) was “completely block”. The “[Ca2+]i response to the peptide following a saturating concentration of fMLF” value ([4]; FIG. 6 upper, fMLF 1 μM) was “considerable responses”.
